Results taken from patent US20240317800A1, “NOVEL COMPOUNDS AND ANTIBACTERIAL COMPOSITION COMPRISING THE SAME” (KOREA INSTITUTE OF OCEAN SCIENCE & TECHNOLOGY, priority 2022, published 2024).
Converted amounts (≈) assume the structure as drawn.

What follows are molecules tested on Mycoplasma hyorhinis ATCC 17981 (assay: Mycoplasma inhibitory activity, broth dilution assay (MIC)). Settings: ATCC17981, 168 h, PPLO liquid medium, 7 days, 37° C., 5% CO2, lowest concentration at which bacteria did not grow, read-out: MIC (minimum inhibitory concentration).
Assay type: cell-based
Procedure: For compounds 1 to 3, the inhibitory activity against Mycoplasma hyorhinis was evaluated using a broth dilution assay. Briefly, an experimental strain Mycoplasma hyorhinis ATCC 17981 was cultured in a PPLO liquid medium at 37° C. in a 5% CO2 incubator. […] 100 μL of the culture medium, which made with the strain suspension at approximately 2×10^4 CFU/mL, was added to each well of a 96-well plate. The plates were incubated for 7 days in a 37° C., 5% CO2 incubator. As the bacteria grew, the medium turned yellow. […] BioMycoX® (CellSafe, Korea) was used as a positive control.
Work on `CCCCCCCCCCC[C@@H]1CC(=O)N[C@@H](CCC(=O)O)C(=O)N[C@@H](CC(C)C)C(=O)N[C@H](CC(C)C)C(=O)N[C@@H](CC(C)C)C(=O)O1` [Compound 1, Bacilotetrin C] yielded an MIC of 31 µg/mL (≈ 44.6 µM).
`CCC(C)CCCCCCCC[C@@H]1CC(=O)N[C@@H](CCC(=O)O)C(=O)N[C@@H](CC(C)C)C(=O)N[C@H](CC(C)C)C(=O)N[C@@H](CC(C)C)C(=O)O1` (stereo partly drawn) [Compound 2, Bacilotetrin D] gave an MIC of 31 µg/mL (≈ 43.7 µM).
In the case of `CC(C)CCCCCCCCC[C@@H]1CC(=O)N[C@@H](CCC(=O)O)C(=O)N[C@@H](CC(C)C)C(=O)N[C@H](CC(C)C)C(=O)N[C@@H](CC(C)C)C(=O)O1` [Compound 3, Bacilotetrin E], the MIC is reported as 31 µg/mL (≈ 43.7 µM).
